Measurements: patent US6455540B1, “Methods of use of quinolone compounds against anaerobic pathogenic bacteria” (priority 1999, dated 2002)
Values after ≈ are worked out from the molar mass of the structure shown. Where two headings read alike, the source gives them in different places.

Experiments:
[1] = tested on: Anaerobiospirillum spp.; assay: Agar dilution MIC; assay type: cell-based
[2] = tested on: certain Prevotella strains; details: Goldstein, et al.; cited from earlier work
[3] = tested on: Porphyromonas spp. [P. asaccharolytica, P. canoris, P. gingivalis, P. macaccae]; assay: Agar dilution MIC, Porphyromonas spp. as a group; assay type: cell-based; details: read-out: concentration to which all strains were susceptible (MIC)
[4] = tested on: clostridial isolates; details: cited from earlier work
[5] = tested on: peptostreptococci; details: cited from earlier work
[6] = tested on: B. thetaiotaomicron; details: Goldstein, et al.; cited from earlier work
[7] = tested on: certain Porphyromonas strains; details: Goldstein, et al.; cited from earlier work
[8] = tested on: F. necrophorum; assay: Agar dilution MIC; assay type: cell-based; details: Fusobacterium necrophorum; read-out: concentration to which strains were susceptible (MIC)
[9] = tested on: Gram-positive anaerobes; assay: Agar dilution activity against Gram-positive anaerobes; assay type: cell-based; details: for activity compared with trovafloxacin: Gram-positive strains
[10] = tested on: B. ovatus; details: Goldstein, et al.; cited from earlier work
[11] = tested on: Clostridium ramosum; details: prior study (Goldstein, et al.), 14 isolates; cited from earlier work
[12] = Marco, et al., 18 strains of peptostreptococci

CO/N=C1\CN(c2nc3c(cc2F)c(=O)c(C(=O)O)cn3C2CC2)CC1CN (racemic) [Gemifloxacin, (R,S)-7-(3-aminomethyl-4-methoxyiminopyrrolidin-1-yl)-1-cyclopropyl-6-fluoro-4-oxo-1,4-dihydro-1,8-naphthyridine-3-carboxylic acid]
MIC90 [1]: ≤ 2 µg/mL
activity [2]: showed activity
MIC [3]: ≤ 0.25 µg/mL
maximum MIC ([4]; Cormicon and Jones, ten clostridial isolates): 2 µg/mL
concentration to which all isolates were susceptible (MIC) ([4]; Marco, et al., 19 unspecieted clostridial isolates): ≤ 2 µg/mL
MIC90 ([5]; Cormicon and Jones, 10 strains of peptostreptococci): 2 µg/mL (≈ 5.14 µM)
MIC90 [5, 12]: 2 µg/mL (≈ 5.14 µM)
MIC range [5, 12]: 0.25 to 8 µg/mL
activity [6]: only limited activity
activity [7]: showed activity
MIC [8]: ≤ 2 µg/mL
activity [9]: good activity
activity compared with trovafloxacin [9]: generally more active than trovafloxacin against Gram-positive strains by one to two dilutions
activity compared with trovafloxacin ([9]; listed as gemifloxacin): compared favorably with trovafloxacin
activity [10]: only limited activity
MIC90 [11]: 8 µg/mL (≈ 20.5 µM)
